According to ChEMBL document CHEMBL1130722, “Synthesis of gem-difluoro-avermectin derivatives: potent anthelmintic and anticonvulsant agents” (1998):

Legend:
Type in all cases: functional
[1] = tested on: Haemonchus contortus; test: Compound was tested for the anthelmintic efficacy by using Haemonchus contortus larval assay
[2] = tested on: Artemia salina; test: Compound was tested for the antiparasitic activity by using Artemia salina (brine shrimp) immobilization assay
[3] = species on record: Mus musculus; test: Compound was tested for the sedative effect by using mouse rotarod test; details: for minimal effective dose: read-out: MED
[4] = species on record: Mus musculus; test: Compound was tested for the anticonvulsant activity in pentamethylenetetrazole mouse epilepsy model

CCC(C)[C@H]1O[C@@]2(C[C@@H]3C[C@@H](C/C=C(\C)[C@@H](O[C@H]4C[C@H](OC)[C@@H](O[C@H]5C[C@H](OC)[C@@H](O)[C@H](C)O5)[C@H](C)O4)[C@@H](C)/C=C/C=C4\CO[C@@H]5[C@H](O)C(C)=C[C@@H](C(=O)O3)[C@]45O)O2)CC(F)(F)[C@@H]1C (stereo partly drawn)
IC100 [1]: 10 ng/mL
IC100 [2]: 13009 ng/mL
minimal effective dose [3]: > 40 mg/kg
ED50 [4]: 9 mg/kg

CCC(C)[C@H]1O[C@]2(C=C[C@@H]1C)C[C@@H]1C[C@@H](C/C=C(\C)[C@@H](O[C@H]3C[C@H](OC)[C@@H](O[C@H]4C[C@H](OC)[C@H](O)[C@H](C)O4)[C@H](C)O3)[C@@H](C)/C=C/C=C3\CO[C@@H]4[C@H](O)C(C)=C[C@@H](C(=O)O1)[C@]34O)O2 (stereo partly drawn)
IC100 [2]: 430 ng/mL
IC100 [4]: 28.2 ng/mL

CCC(C)[C@H]1O[C@@]2(C[C@@H]3C[C@@H](C/C=C(\C)[C@@H](O[C@H]4C[C@H](OC)[C@@H](O[C@H]5C[C@H](OC)[C@@H](O)[C@H](C)O5)[C@H](C)O4)[C@@H](C)/C=C/C=C4\CO[C@@H]5[C@H](OC)C(C)=C[C@@H](C(=O)O3)[C@]45O)O2)CC(F)(F)[C@@H]1C (stereo partly drawn)
IC100 [1]: 10 ng/mL

IVERMECTIN
IC100 [1]: 10 ng/mL
IC100 [2]: 430 ng/mL
MED [3]: > 300 mg/kg
ED50 [4]: 28.2 mg/kg

CCC(C)[C@H]1O[C@]2(C=C[C@@H]1C)C[C@@H]1C[C@@H](C/C=C(\C)[C@@H](O[C@H]3C[C@H](OC)[C@@H](O[C@H]4C[C@H](OC)C(F)(F)[C@H](C)O4)[C@H](C)O3)[C@@H](C)/C=C/C=C3\CO[C@@H]4[C@H](O)C(C)=C[C@@H](C(=O)O1)[C@]34O)O2 (stereo partly drawn)
IC100 [1]: 10 ng/mL
IC100 [2]: 5200 ng/mL

CCC(C)[C@H]1O[C@]2(C=C[C@@H]1C)C[C@@H]1C[C@@H](C/C=C(\C)C(F)(F)[C@@H](C)/C=C/C=C3\CO[C@@H]4[C@H](O)C(C)=C[C@@H](C(=O)O1)[C@]34O)O2 (stereo partly drawn)
IC100 [1]: 10 ng/mL
IC100 [2]: 325 ng/mL

CN1C(=O)CN=C(c2ccccc2)c2cc(Cl)ccc21 [DIAZEPAM]
minimal effective dose [3]: 3 mg/kg
ED50 [4]: 0.26 mg/kg

CCC(C)[C@H]1O[C@]2(C=C[C@@H]1C)C[C@@H]1C[C@@H](C/C=C(\C)[C@@H](O[C@H]3C[C@H](OC)C(F)(F)[C@H](C)O3)[C@@H](C)/C=C/C=C3\CO[C@@H]4[C@H](O)C(C)=C[C@@H](C(=O)O1)[C@]34O)O2 (stereo partly drawn)
IC100 [1]: 10 ng/mL
